Test results from patent US20260056197A1, “METHOD FOR MEASURING TRACP-5b AND KIT THEREFOR” (NITTO BOSEKI CO., LTD., priority 2023, published 2026).

Tests used:
Assay type in all cases: biochemical
TRACP-5a [1] = target: T1, TRACP-5a (Homo sapiens, UniProt P13686); test: Test 1: evaluation of TRACP-5a inhibitor in an enzyme method; details: Table 4, 0.1 mass % evaluation compound in chromogenic substrate solution; for Activity value 5a: 7 U/L TRACP-5a solution, control without compound 6.5; for 5b/5a ratio: control without compound 1.1
T1 construct: purchased R&D Systems, Inc
T1 sequence (P13686 22-325): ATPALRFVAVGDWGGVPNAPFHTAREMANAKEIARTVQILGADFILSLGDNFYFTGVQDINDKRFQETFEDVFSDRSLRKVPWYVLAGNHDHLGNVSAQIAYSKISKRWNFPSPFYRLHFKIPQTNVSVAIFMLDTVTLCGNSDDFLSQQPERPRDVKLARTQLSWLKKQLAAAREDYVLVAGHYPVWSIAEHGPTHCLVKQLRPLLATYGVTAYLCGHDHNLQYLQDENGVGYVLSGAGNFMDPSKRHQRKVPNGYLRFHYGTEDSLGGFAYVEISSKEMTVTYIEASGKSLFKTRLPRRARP
Method: TRACP-5b manufactured by Nittobo Medical Co., Ltd. and TRACP-5a manufactured by R&D Systems, Inc. were diluted with a 22 mM MES buffer (pH 5.0) to prepare a 7 U/L TRACP-5b solution and a 7 U/L TRACP-5a solution, and the solutions were used as measurement samples. In the measurement with sodium hyaluronate, a 7 U/L TRACP-5b solution and an 8 U/L TRACP-5a solution prepared in the same manner were used.
A chromogenic substrate solution having the following composition was used. • 5 mM 2-chloro-4-nitrophenyl phosphate • 109 mM MES • 40 mM sodium tartrate • 0.1 mass % evaluation compound • pH 6.6
(§1) For the measurement, Hitachi automatic analyzer model 7180 (Hitachi High-Tech Corporation) was used. To 16 μL of the 7 U/L TRACP-5b solution, or the 7 U/L TRACP-5a solution or the 8 U/L TRACP-5a solution, 200 μL of the chromogenic substrate solution containing an evaluation compound was added to start an enzymatic reaction, and the absorbance (primary wavelength: 405 nm, secondary wavelength: 480 nm) was measured for 516.0 seconds starting at 340.5 seconds after the beginning of the enzymatic reaction. The amount of absorbance change per minute (the amount of absorbance change per unit time during the enzymatic reaction) was determined from the absorbance change between both the time points.
(§2) On the other hand, serial dilutions of a TRACP-5b reference solution with known activity in a 22 mM MES buffer solution (pH 5.0) as well as a 22 mM MES buffer solution (pH 5.0) as a blank were prepared; the serial dilutions of the TRACP-5b reference solution were measured using the chromogenic substrate solution containing each evaluation compound, thereby producing a standard straight line for the TRACP-5b. In addition, the serial dilutions of the TRACP-5b reference solution were measured using the chromogenic substrate solution without any evaluation compound in the same manner, thereby producing a standard straight line for the TRACP-5b. The chromogenic substrate solution containing each evaluation compound and the chromogenic substrate solution without any evaluation compound were used to measure the TRACP-5b solution and the TRACP-5a solution, and these standard straight lines were used to calculate activity values from the obtained amounts of absorbance change.
The measurement using sodium hyaluronate was performed in a separate batch from that with other evaluation compounds.

TRACP-5a [2] = target: T1, TRACP-5a; test: Evaluation of TRACP-5a inhibitor in EIA method; details: for 5b/5a ratio: Table 14, 0.1 mass % evaluation compound in chromogenic substrate solution, control without compound 1.3; for Abs. 405 nm 5a: Table 14, antibody-immobilized plate, 0.1 mass % evaluation compound in chromogenic substrate solution, 7 U/L TRACP-5a solution, control without compound 0.1956
Method: (§3) A TRACP-5b monoclonal antibody (Accession Number IPOD FERM BP-7890) was diluted with PBS (8 mM disodium hydrogenphosphate, 1.5 mM sodium dihydrogenphosphate, 2.7 mM KCl, and 137 mM NaCl; pH 7.5) to 10 µg/mL, and 100 μL of the antibody-containing solution was added to each well of an ELISA plate (manufactured by Thermo Fisher Scientific, Inc., product number 468667). The solution was left to stand overnight under refrigeration, then washed 3 times with 300 μL of TBS-T (50 mM Tris-HCl, 150 mM NaCl, and 0.05% Tween 20; pH 7.5), then 300 μL of TBS containing 1.5% BSA was added, and the mixture was left to stand overnight under refrigeration.
(§4) After the TBS containing 1.5% BSA was removed from the prepared antibody-immobilized plate, 100 μL of TBS (50 mM Tris-HCl and 150 mM NaCl, pH 7.5) and 50 μL of the 7 U/L TRACP-5b solution or the 7 U/L TRACP-5a solution were added to each well, and the mixture was reacted for 1 hour under stirring (25° C., 700 rpm). After washing 3 times with 300 µL of TBS-T, 100 μL of a chromogenic substrate solution (5 mM 2-chloro-4-nitrophenyl phosphate, 109 mM MES, and 40 mM sodium tartrate; pH 6.6) to which the evaluation compound was added at a concentration of 0.1 mass % was added to each well, and the plate was left to stand at 37° C. for 1 hour. Thereafter, 50 μL of 0.5 N NaOH was added, and the absorbance (primary wavelength: 405 nm, secondary wavelength: 490 nm) was measured with a plate reader.

TRACP-5b [3] = test: Evaluation of TRACP-5a inhibitor in EIA method; details: Table 14, antibody-immobilized plate, 0.1 mass % evaluation compound in chromogenic substrate solution, 7 U/L TRACP-5b solution, control without compound 0.2477
Method: as §3, §4

TRACP-5b [4] = test: Test 1: evaluation of TRACP-5a inhibitor in an enzyme method; details: Table 4; 0.1 mass % evaluation compound in chromogenic substrate solution; 7 U/L TRACP-5b solution; control without compound 6.9
Method: The amount of absorbance change per minute (the amount of absorbance change per unit time during the enzymatic reaction) was determined from the absorbance change between both the time points.
as §2

TRACP-5a [5] = target: T1, TRACP-5a; test: Test 2: study of concentration of TRACP-5a inhibitor (enzyme method); details: Table 8; for Activity value 5a: 8 U/L TRACP-5a solution, control 8.0; for 5b/5a ratio: control 0.9
Method: as §1, §2
(§5) For dextran sulfate sodium (5K), dextran sulfate sodium (50K), sodium polyvinyl sulfonate (5K), and sodium vinylsulfonate, the influence of the concentration on the inhibitory activity was studied.
(§6) The concentration of each evaluation compound in the measurement reagent (chromogenic substrate solution) was adjusted as follows.
(§7) A 7 U/L TRACP-5b solution and a 7 U/L TRACP-5a solution were used in the test using a reagent containing dextran sulfate sodium (5K) and dextran sulfate sodium (50K); a 7 U/L TRACP-5b solution and a 7 U/L or 8 U/L TRACP-5a solution were used in the test using a reagent containing sodium polyvinyl sulfonate (5K); and a 7 U/L TRACP-5b solution and an 8 U/L TRACP-5a solution were used in the test using a reagent containing sodium vinylsulfonate.
(§8) The chromogenic substrate solution having the same composition as in Test 1 was used, except that the concentration of each evaluation compound was as described above. The measurement method was carried out in the same procedure as in Test 1.

TRACP-5b [6] = test: as above; details: Table 8, 7 U/L TRACP-5b solution, control 6.9
Method: as §1, §2, §5, §6, §7, §8

Compound	Activity value 5a (TRACP-5a [1])	5b/5a ratio (TRACP-5a [1])	5b/5a ratio (TRACP-5a [2])	Abs. 405 nm 5a (TRACP-5a [2])	Abs. 405 nm 5b (TRACP-5b [3])	Activity value 5b (TRACP-5b [4])	Activity value 5a (TRACP-5a [5]; VSA Na 0.0100 mass %)	5b/5a ratio (TRACP-5a [5]; VSA Na 0.0100 mass %)	Activity value 5a (TRACP-5a [5]; VSA Na 0.0150 mass %)	5b/5a ratio (TRACP-5a [5]; VSA Na 0.0150 mass %)	Activity value 5b (TRACP-5b [6]; VSA Na 0.0100 mass %)	Activity value 5b (TRACP-5b [6]; VSA Na 0.0150 mass %)	Activity value 5a (TRACP-5a [5]; VSA Na 0.0200 mass %)	5b/5a ratio (TRACP-5a [5]; VSA Na 0.0200 mass %)	Activity value 5b (TRACP-5b [6]; VSA Na 0.0200 mass %)
C=CS(=O)(=O)[O-].[Na+] [Example 5, Sodium vinylsulfonate]	1.6 U/L	4.1	3.4	0.0775	0.2600	6.5 U/L	6.8 U/L	1.0	5.6 U/L	1.2	6.8 U/L	6.8 U/L			
Sodium vinylsulfonate [Example 5]													4.5 U/L	1.5	6.9 U/L
β-cyclodextrin sodium sulfate [Comparative example 1, reference compound]	2.3 U/L	2.9	2.3	0.0853	0.1971	6.7 U/L									
